This series in a line: Aqueous solubility, preliminary test. It counts as physicochemical. The note with it: thermodynamic from solid; distilled water, 10 minutes stirring, visual check, sample JH012B; read-out: Approximate solubility. The procedure: A small sample of C2E2 (0.1 g, JH012B) was weighed out and placed in a 25 mL graduated cylinder. Increasing volumes of distilled water were added according to the chart below:
After each addition of the indicated amount of water, the mixture was stirred for 10 minutes and visually checked for any dissolved parts of the sample. […] The approximate solubility is therefore 10-50 g/L.

Drawing on patent publication US9546129B2, “DTPA prodrugs, compositions thereof, and methods of using the same” (priority 2012, dated 2017), this text covers solubility for one compound.

The structures appear in SMILES notation. ≈ marks a conversion by molar mass, not a printed value.

The solubility is the concentration that dissolves in the medium under given conditions.

Take `CCOC(=O)CN(CCN(CCN(CC(=O)O)CC(=O)OCC)CC(=O)O)CC(=O)O` [C2E2, 6,9-bis(carboxymethyl)-3-(2-ethoxy-2-oxoethyl)-11-oxo-12-oxa-3,6,9-triazatetradecan-1-oic acid]: the solubility at 10 min is 10 to 50 mg/mL (≈ 22.2 to 111 mM).
